Source: patent US6455495B1, “Methods and compositions for delivery of therapeutic agents to bone tissue employing conjugates of negatively charged peptide oligomers with therapeutic agents” (The Salk Institute for Biological Studies, priority 1997, dated 2002)

Experiments:
streptavidin = streptavidin (Streptomyces avidinii, UniProt P22629); test: Recruitment of 125I-labeled streptavidin to hydroxyapatite; type: binding; conditions: 1 nmole peptide on 1 mg hydroxyapatite; 0.1 nmole 125I-streptavidin, 1 M KCl, 0.01 M phosphate pH 6.5, 45 minutes
Method: The supernatant was removed by centrifugation, and the conjugate treated hydroxyapatite washed several times with 200 μl of H2O. The amounts of radioactivity found in the supernatant, wash and conjugate treated hydroxyapatite were then measured. In control experiments, biotin-glu10 was replaced by glu10. When a peptide bound to the hydroxyapatite was ligated to biotin about 70% of the streptavidin was recruited to the hydroxyapatite and 25-30% remained in the supernatant. In the control experiment, no more than 5% of the streptavidin was bound to the hydroxyapatite.

dihydrofolate reductase = conditions: 1 nmole peptide adsorbed on 1 mg hydroxyapatite; 0.52 nmole DHFR, pH 6.4, shaken 45 minutes; SDS gel, Coumassie Blue
Method: The supernatant was removed by centrifugation and the hydroxyapatite was washed with 100 μl of water. Dihydrofolate reductase (0.52 nmole) in 200 μl of buffer containing 0.1 M ammonium sulfate, 0.01 M potassium phosphate, at pH 6.4 and 5% glycerol was added to the hydroxyapatite and shaken for 45 minutes. The hydroxyapatite was separated from the supernatant, washed with 100 μl of water and then eluted twice with 20 μl of 0.02 M K4P2O7. […] The supernatant, the washes and the pyrophosphate eluate were analyzed on a 6% arylamide SDS gel using Coumassie Blue to visualize dihydrofolate reductase.

[1] = R. Fujisawa et al. 1996, cited from earlier work

Chain of streptavidin (P22629 25-183): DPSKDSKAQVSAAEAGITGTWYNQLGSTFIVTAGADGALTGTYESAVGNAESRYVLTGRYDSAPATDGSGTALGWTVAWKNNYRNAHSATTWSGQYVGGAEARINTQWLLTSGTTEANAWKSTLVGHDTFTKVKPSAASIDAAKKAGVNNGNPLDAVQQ

Substance	streptavidin recruited (bound) to the hydroxyapatite (streptavidin)	dihydrofolate reductase found in the pyrophosphate eluate (dihydrofolate reductase)	adsorption onto hydroxyapatite [1]	effect on mineralization of hydroxyapatite ([1]; in the presence of calcium and phosphate)
Glutamic acid decapeptide [glu10]	no more than 5%	only a small amount	–	–
glutamic acid hexamer [Glu6]	–	–	significantly adsorb	affect the mineralization
Aspartic acid hexamer [Asp6]	–	–	significantly adsorb	–
